Holding throughout (assay type): cell-based
One experiment has as its system NCI-H23. As to the kind of experiment: 10-day Cell Titre Glo combination screen. The settings on record: Homo sapiens; NCI-H23 lung; monotherapy; read-out: mono AC50. The procedure, abridged: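 Dose two compounds across a 6×6 matrix, culture 10 days, then read ATP luminescence. Normalise each well to day-zero and DMSO values. Compare the matrix to an HSA model built from single-agent curves and calculate combination index at an iso-effect level.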

Experiment [1] has as its system SUM149PT 53BP1 WT (CNTR) cells. As to the kind of experiment: Clonogenic proliferation assay (14 days, SRB). The following applies: Homo sapiens; SUM149PT CNTR; monotherapy; read-out: IC50, clonogenic growth. On the procedure:
(§1) Parental BRCA1 mutant SUM149PT breast cancer cell line (Elstrodt 2006) were obtained from AstraZeneca Cell Bank at Alderley Park, Macclesfield. Cells were routinely grown in Ham's F12 media containing 5% foetal calf serum, 1% glutamine (2 mM), 500 ng/ml hydrocortisone and 5% insulin. SUM149PT 53BP1 WT (CNTR) and 53BP1 null (KO) cell pools were generated by CRISPR-Cas9 technology. Short guide (sg) RNA targeting TP53BP1 on exon 10 (GAGTAGATCGGAAAGCATC) and a non-targeting CNTR guide (GAGTAGATCGGAAAGCATC) were designed and cloned into a lentiviral vector containing a mClover3 cassette for green fluorescence signal and hygromycin cassette for selection (pKLV2-U6gRNA (Bbsl)-EF1a-mClover3-T2A-HygR-W). Lentiviruses were generated from both KO and CNTR (sg) RNA and Cas9 (pKLVEF1a-Cas9Bsd-W) plasmids and parental cells were transduced first with Cas9 lentiviruses followed by blasticidin selection and then with KO and CNTR lentiviruses followed by hygromycin selection. Loss of 53BP1 was verified by analysing 53BP1 protein expression from whole cell lysates by western blotting (Novus, NB100-304, 1:1000 dilution).
(§2) Cells were seeded onto 6-well plates, three replicates per cell line, and 24 hours later the cells were dosed with AZD6738/AZD5305. For monotherapies the cells were dosed with a 6-point concentration response of AZD6738 (0 to 0.64 μM) or AZD5305 (0 to 1 μM). For combination treatments single dose of AZD5305 (10 nM) was used with a 5-point concentration response of AZD6738 (0 to 0.64 μM) for 53BP1 KO cells. Cells were grown for 14 days for colony formation without media changes. Cells were fixed with 10% TCA (Tricloroacetic acid). 14 days after dosing any formed colonies were stained with 0.057% SRB (sulforhodamine B acid), imaged with GelCount™ (Oxford OPTRONIX) at 600 dpi resolution and the stained colony growth intensity was measured using plate reader with OD @[…]. Dose response curves were generated and IC50 concentrations were calculated using GraphPad PRISM software.

Experiment [2] concerns SUM149PT 53BP1 KO cell pools. As to the kind of experiment: Clonogenic proliferation assay (14 days, SRB). The following applies: Homo sapiens; SUM149PT 53BP1 KO; monotherapy; read-out: IC50, clonogenic growth. Here is the method: as §1, §2

pIC50: −log10 of the molar value.

Turning to `C[C@@H]1COCCN1c1cc(C2([S@](C)(=N)=O)CC2)nc(-c2ccnc3[nH]ccc23)n1` [AZD6738, 4-{4-[(3R)-3-Methylmorpholin-4-yl]-6-[1-((R)—S-methylsulfonimidoyl)cyclopropyl]pyrimidin-2-yl}-1H-pyrrolo[2,3-b]-pyridine], the AC50 (usually the midpoint of the concentration-response curve, whichever way the signal moves) in the experiment on NCI-H23 is 221 nM. Also, the pIC50 in experiment [1] and in experiment [2] was approximately 6.20 in each case.

Values taken from US20250352539A1, “COMBINATION THERAPY FOR TREATING CANCER” (AstraZeneca AB, priority 2022, published 2025).
